According to patent US8952024B2, “Herbicidal pyrimidone derivatives” (E I du Pont de Nemours and Company, priority 2009, dated 2015):
Read-outs that look alike come from different tables or passages of the source.

Legend:
Experiment in all cases: Test B pre-/postemergence plant response
Assay type in all cases: in vivo
[1] = system: Surinam grass (Brachiaria decumbens)
Outline: (§1)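 Test compounds, formulated in a non-phytotoxic solvent mixture with surfactant, are applied to the soil surface (loam and sand blend) right after seeding, or sprayed over plants at the 1- to 4-leaf stage grown in peat moss/vermiculite medium. After 13 to 15 days under glasshouse conditions, each species is scored visually from 0 (no effect) to 100 (complete control) against controls.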

[2] = system: morningglory (Ipomoea coccinea)
Outline: as §1

[3] = system: blackgrass (Alopecurus myosuroides); conditions: for pest or weed control at 31 g/ha: 31 g ai/ha, scale 0 to 100 (0 no effect, 100 complete control); for pest or weed control at 62 g/ha: 62 g ai/ha
Outline: as §1

[4] = system: large crabgrass (Digitaria sanguinalis); conditions: for pest or weed control at 31 g/ha: 31 g ai/ha, scale 0 to 100 (0 no effect, 100 complete control); for pest or weed control at 62 g/ha: 62 g ai/ha
Outline: as §1

[5] = system: wheat (Triticum aestivum)
Outline: as §1

[6] = system: velvetleaf (Abutilon theophrasti)
Outline: as §1

[7] = system: Italian ryegrass (Lolium multiflorum); conditions: Lolium multiflorum, post-emergence, Postemergence, scale 0 (no effect) to 100 (complete control)
Outline: as §1

[8] = Preemergence, 125 g ai/ha, 0 to 100 scale
[9] = Postemergence, 250 g ai/ha, scale 0 to 100

Question: What does the source list for `Cc1c(F)cccc1-n1c(-c2ccccc2)ncc(C(=O)C2=C(O)CCCC2=O)c1=O` [Compound 47, 3-(3-fluoro-2-methylphenyl)-5-[(2-hydroxy-6-oxo-1-cyclohexen-1-yl)carbonyl]-2-phenyl-4(3H)-pyrimidinone]?
Answer: Surinam Grass plant response rating [1, 8]: 100; pest or weed control at 62 g/ha ([1]; Urochloa decumbens, post-emergence, Postemergence, 62 g ai/ha, scale 0 (no effect) to 100 (complete control), 13 to 15 days, read-out: Plant response rating, Surinam Grass): 95%; pest or weed control at 125 g/ha ([1]; Urochloa decumbens, post-emergence, Postemergence, 125 g ai/ha, visual rating after 13 to 15 days, scale 0 (no effect) to 100 (complete control)): 98%; pest or weed control at 250 g/ha ([1]; Urochloa decumbens, pre-emergence, 250 g ai/ha, Preemergence, 0 to 100 scale, read-out: Plant response rating, Surinam Grass): 100%; pest or weed control at 31 g/ha ([1]; Urochloa decumbens, pre-emergence, Preemergence, 31 g ai/ha, scale 0 to 100 (0 no effect, 100 complete control), read-out: Plant response rating, Surinam Grass): 85%; pest or weed control at 62 g/ha ([2]; Ipomoea, post-emergence, Postemergence, 62 g ai/ha, scale 0 (no effect) to 100 (complete control), 13 to 15 days, read-out: Plant response rating, Morningglory): 80%; pest or weed control at 125 g/ha ([2]; Ipomoea, post-emergence, Postemergence, 125 g ai/ha, visual rating after 13 to 15 days, scale 0 (no effect) to 100 (complete control)): 90%; pest or weed control at 250 g/ha ([2]; Ipomoea, pre-emergence, 250 g ai/ha, Preemergence, 0 to 100 scale, read-out: Plant response rating, Morningglory): 55%; pest or weed control at 31 g/ha ([2]; Ipomoea, pre-emergence, Preemergence, 31 g ai/ha, scale 0 to 100 (0 no effect, 100 complete control), read-out: Plant response rating, Morningglory): 0%; Morningglory plant response rating [2, 8]: 0; pest or weed control at 31 g/ha ([3]; Alopecurus myosuroides, post-emergence, 360 h, Postemergence, read-out: Plant response rating, Blackgrass): 5%; pest or weed control at 62 g/ha ([3]; Alopecurus myosuroides, post-emergence, 360 h, Postemergence, scale 0 (no effect) to 100 (complete control), 13 to 15 days, read-out: Plant response rating, Blackgrass): 20%; pest or weed control at 125 g/ha ([3]; Alopecurus myosuroides, post-emergence, 360 h, Postemergence, 125 g ai/ha, visual rating after 13 to 15 days, scale 0 (no effect) to 100 (complete control)): 25%; pest or weed control at 250 g/ha ([3]; Alopecurus myosuroides, pre-emergence, 360 h, 250 g ai/ha, Preemergence, 0 to 100 scale, read-out: Plant response rating, Blackgrass): 5%; pest or weed control at 31 g/ha ([3]; Alopecurus myosuroides, pre-emergence, 360 h, Preemergence, read-out: Plant response rating, Blackgrass): 0%; pest or weed control at 62 g/ha ([3]; Alopecurus myosuroides, pre-emergence, 360 h, Preemergence, scale 0 to 100, 0 no effect, 100 complete control, read-out: Plant response rating, Blackgrass): 5%; Blackgrass plant response rating [3, 9]: 30; Blackgrass plant response rating [3, 8]: 5; pest or weed control at 31 g/ha ([4]; Digitaria sanguinalis, post-emergence, Postemergence, read-out: Plant response rating, Crabgrass, Large): 85%; pest or weed control at 62 g/ha ([4]; Digitaria sanguinalis, post-emergence, Postemergence, scale 0 (no effect) to 100 (complete control), 13 to 15 days, read-out: Plant response rating, Crabgrass, Large): 85%; pest or weed control at 125 g/ha ([4]; Digitaria sanguinalis, post-emergence, Postemergence, 125 g ai/ha, visual rating after 13 to 15 days, scale 0 (no effect) to 100 (complete control)): 90%; pest or weed control at 250 g/ha ([4]; Digitaria sanguinalis, pre-emergence, 250 g ai/ha, Preemergence, 0 to 100 scale, read-out: Plant response rating, Crabgrass, Large): 100%; pest or weed control at 31 g/ha ([4]; Digitaria sanguinalis, pre-emergence, Preemergence, read-out: Plant response rating, Crabgrass, Large): 75%; pest or weed control at 62 g/ha ([4]; Digitaria sanguinalis, pre-emergence, Preemergence, scale 0 to 100, 0 no effect, 100 complete control, read-out: Plant response rating, Crabgrass, Large): 95%; Crabgrass, Large plant response rating [4, 9]: 100; Crabgrass, Large plant response rating [4, 8]: 100; Wheat plant response rating [5, 8]: 0; plant injury at 62 g/ha ([5]; Triticum aestivum, post-emergence, Postemergence, 62 g ai/ha, scale 0 (no effect) to 100 (complete control), 13 to 15 days, read-out: Plant response rating, Wheat): 0%; plant injury at 125 g/ha ([5]; Triticum aestivum, post-emergence, Postemergence, 125 g ai/ha, visual rating after 13 to 15 days, scale 0 (no effect) to 100 (complete control)): 5%; plant injury at 250 g/ha ([5]; Triticum aestivum, pre-emergence, 250 g ai/ha, Preemergence, 0 to 100 scale, read-out: Plant response rating, Wheat): 0%; plant injury at 31 g/ha ([5]; Triticum aestivum, pre-emergence, Preemergence, 31 g ai/ha, scale 0 to 100 (0 no effect, 100 complete control), read-out: Plant response rating, Wheat): 0%; pest or weed control at 62 g/ha ([6]; Abutilon theophrasti, post-emergence, 360 h, Postemergence, 62 g ai/ha, scale 0 (no effect) to 100 (complete control), 13 to 15 days, read-out: Plant response rating, Velvetleaf): 85%; pest or weed control at 125 g/ha ([6]; Abutilon theophrasti, post-emergence, 360 h, Postemergence, 125 g ai/ha, visual rating after 13 to 15 days, scale 0 (no effect) to 100 (complete control)): 98%; pest or weed control at 250 g/ha ([6]; Abutilon theophrasti, pre-emergence, 360 h, 250 g ai/ha, Preemergence, 0 to 100 scale, read-out: Plant response rating, Velvetleaf): 100%; pest or weed control at 31 g/ha ([6]; Abutilon theophrasti, pre-emergence, 360 h, Preemergence, 31 g ai/ha, scale 0 to 100 (0 no effect, 100 complete control), read-out: Plant response rating, Velvetleaf): 80%; Velvetleaf plant response rating [6, 8]: 90; pest or weed control at 62 g/ha ([7]; 62 g ai/ha, 13 to 15 days, read-out: Plant response rating, Ryegrass, Italian): 30%; pest or weed control at 125 g/ha ([7]; 125 g ai/ha, visual rating after 13 to 15 days): 30%
